Measured values taken from article PMC5955599, “The HTLV-1 gp21 fusion peptide inhibits antigen specific T-cell activation in-vitro and in mice” (PLoS Pathogens, 2018).

What was measured:
[1] = test system: primary mouse bone marrow derived macrophages (BMDM); experiment: Cytokine secretion from TLR-ligand stimulated BM-derived macrophages (ELISA); format: cell-based, mouse (C57Bl/6J); settings: HTLV FP at 10μM, stimulated by LTA, LPS or PAM3CSK4 (1 μg/ml), n = 3
Experimental: Mouse Femora and tibiae BM cells were isolated from C57Bl/6J mice and cultured in RPMI medium containing FBS (10%), L-glutamine (1%), sodium pyruvate (1%), Pen-strep (1%), and 10 ng/ml recombinant CSF-1 (Peprotech). At day 3, half the medium was replaced, and on day 7, cells were used for in vitro assay, in which 2*10^5 cells were plated per well in a 24-well plate.
Mouse Femora and tibiae BM cells were collected and cultured in RPMI medium containing FBS (10%), L-glutamine (1%), sodium pyruvate (1%), Pen-strep (1%), and 10 ng/ml recombinant CSF-1 (Peprotech). On day 7, cells were stimulated by either (i) LTA, (ii) LPS, or (iii) PAM3CSK4 (1 μg/ml), in the presence of the HTLV FP at 10μM. Media was collected either 5 hours following activation (for TNF-α detection) or 22 hour following activation (for IL-6 detection) and secretion levels were determined according to standard protocols from R&D systems.
Supplementary file ppat.1007044.s002.tif: S2 Fig BM-derived macrophages activation is not affected by HTLV FP treatment. […] Media was collected either 5 hours following activation (for TNF-α detection) or 22 hour following activation (for IL-6 detection) and cytokines secretion was measured by ELISA assay. […]

[2] = test system: MOG35-55–antigen specific T-cells; experiment: T-bet and Gata3 expression detected by FACS; format: cell-based, mouse (C57Bl/6J); settings: peptide at 10μM, APC activation, n = 3
Experimental: (A-B) MOG35-55–antigen specific T-cells were activated by irradiated MOG35-55 presenting APCs, in the presence of the HTLV FP at 10μM. Total RNA was isolated 24 hours following activation and mRNA expression levels were determined by qRT-PCR. The values of each gene were normalized to Rpl13a as a housekeeping control. The HTLV FP reduces TBX21 (T-bet) mRNA expression and elevates GATA3 mRNA expression. The data is presented as arbitrary units. n≥3. (C-H) MOG35-55–antigen specific T-cells were activated by irradiated MOG35-55 presenting APCs, in the presence of either HTLV or HIV FP at 10μM. Samples were fixed in 4% PFA and stained with anti T-bet-APC and anti Gata3-FITC antibodies (C-D) 24, (E-F) 48 and (G-H) 72 hours following activation. Each time point is represented as cell count vs. APC or FITC fluorescence histogram. Analysis was performed using LSR-II flow cytometer (BD) and FlowJo cell analysis software (FlowJo, LLC). The HTLV FP reduces T-bet expression and elevates Gata3 expression. n = 3. One-way ANOVA was used for statistical analysis. ns, not significant; *P<0.05;** P<0.01.
Antigen-specific T-cells were plated onto round 12-well plates (10^6 cells/ well) and activated with 5x10^5 irradiated (25 gray) APC and 5μg/ml of MOG p35-55 in the presence or absence of relevant peptides. Cells were washed with PBS, blocked (5% Donkey serum, 2% BSA and 0.1% Triton in PBS) and fixed with 4% Paraformaldehyde (PFA) 24 hour following activation. Cells were then stained with Gata3-FITC and T-bet-APC fluorochrome-labeled monoclonal mouse antibodies (purchased from Miltenyi Biotec) according to Miltenyi Biotec protocols. Samples were then collected using LSR-II flow cytometer and analyzed with FlowJo cell analysis software.

[3] = Circular dichroism spectroscopy with CDNN secondary structure analysis; format: physicochemical; settings: 25μM peptide in 5mM HEPES buffer with 1% LPC
Experimental: Fig 6 Detection of the immune modulatory region within the HTLV FP. (A) Sequences of shorter peptides derived from the full length HTLV FP. (B) MOG35-55–antigen specific T-cells were activated by APCs in the presence of HTLV FP derived peptides at 10μM and proliferative responses were assessed as described above. […] The data is presented as mean inhibition of proliferation. n = 12. (C) MOG35-55–antigen specific T cells were activated by either (i) irradiated MOG35-55 presenting APCs (black), (ii) antibodies against CD3 and CD28 (white), or (iii) PMA and Ionomycin (gray) in the presence of HTLV FP5-13 and HIV FP5-13 at 10μM. Proliferative responses were assessed as described above. The HTLV FP inhibits T-cell proliferation induced either through the TCR or downstream from the TCR with equal potencies. The data is presented as mean inhibition of proliferation. n = 12. […] CD spectra were measured at 25μM in 5mM HEPES buffer containing 1% lyso-phosphatidylcholine (LPC). […] (E) MOG35-55–antigen specific T-cells were activated by APCs in the presence of HTLV FP5-13 D/L enantiomers at 10μM and proliferative responses were assessed as described above. Both HTLV FP5-13 enantiomers inhibit T-cells proliferation with equal potencies. The data is presented as mean inhibition of proliferation. n = 12. One-way ANOVA was used for statistical analysis. *P<0.05;**P<0.01;***P<0.001.

[4] = CD 190–260 nm, CDNN, relative amount of structure out of 100%

AVPVAVWLVSALAMGAGVAGGITGSMSLASGKS [HTLV FP, gp21 fusion peptide of HTLV-1, MT-2 isolate]
TNFα secretion from BMDM ([1]; media 5 hours following activation): had no effect on cytokine secretion | IL6 secretion from BMDM ([1]; media 22 hour following activation): had no effect on cytokine secretion | Gata3 expression (protein), 24 hours ([2]; 24 hours following activation): elevated Gata3 expression | T-bet expression (protein), 24 hours ([2]; 24 hours following activation): reduced T-bet expression | Gata3 expression (protein), 48 hours ([2]; 48 hours following activation): elevated Gata3 expression | T-bet expression (protein), 48 hours ([2]; 48 hours following activation): reduced T-bet expression | Gata3 expression (protein), 72 hours ([2]; 72 hours following activation): elevated Gata3 expression | T-bet expression (protein), 72 hours ([2]; 72 hours following activation): no difference was observed | Antiparallel β-Sheet [3, 4]: 2.1% | Parallel β-Sheet [3, 4]: 3.3% | Random-coil [3, 4]: 13% | α-Helix [3, 4]: 68.6% | β-turn [3, 4]: 13% | secondary structure in a membrane mimetic environment ([3]; CD): exhibited an α-helical structure
